Values quoted from earlier work in patent US20220280453A1, “Pharmaceutical Formulation” (Klaria Pharma Holding AB, priority 2019, published 2022).
Structures can show the parent of a compound that is named as a salt.

details: ionized form

Compound	pH at which most stable in solution
CNC1(c2ccccc2Cl)CCCCC1=O (racemic) [Ketamine, ketamine]	around 4

details: counterions of strong acids; Shannon effective ionic radii

Compound	Ionic radius [Å]
O=S(=O)(O)O [Sulfate (SO4^2−), Sulfate]	2.89
Cl [Chloride (Cl^−), Chloride]	1.81
Br [Bromide (Br^−), Bromide]	1.96
O=[N+]([O-])O [Nitrate (NO3^−), Nitrate]	2.62
I [Iodide (I^−), Iodide]	2.20
F [Fluoride (F^−), Fluoride]	1.33
